Results published in patent US8202856B2 (Merck Serono SA, priority 2007, dated 2012).

Target: S1P1 receptor (Homo sapiens, UniProt P21453)
Assay: 35S-GTPγS binding, membranes from CHO cells expressing S1P1
Format: biochemical
Details: CHO cell membranes expressing S1P1
Protocol: Receptor binding assay: Membranes were prepared from CHO cells expressing S1P1 or S1P3 for use in ligand and 35S-GTPTS binding studies. Cells were suspended in 50 mM TRIS, pH 7.4, 2 mM EDTA, 250 mM Sucrose (buffer A) and 1× Complete protease inhibitor cocktail (Roche), and disrupted at 4° C. by nitrogen decompression using a cell disruption bomb (Parr Instrument). Following centrifugation at 1000 RPM for 10 min at 4° C., the supernatant was suspended in buffer A and centrifuged again at 19000 RPM for 60 min at 4° C. The pellet was then suspended in 10 mM HEPES, pH 7.4, 1 mM EDTA, 250 mM Sucrose (Buffer B), and 1× Complete EDTA-free protease inhibitor cocktail and homogenized using a potter. Membranes were flash frozen in liquid nitrogen and stored at −80° C. [33P]sphingosine 1-phosphate (3000 Ci/mmol; American Radiolabeled Chemicals, Inc.) was added to test compounds in DMSO. Membranes and WGA SPA beads (GE Healthcare) were added to give a final volume of 100 μl in 96-well plates with assay concentrations of […] [33P]sphingosine 1-phosphate (respectively for S1P1 or S1P3), 50 mM HEPES, pH 7.5, 5 mM MgCl2, 100 mM NaCl, 0.4% fatty acid-free BSA, 1-5 μg/well of proteins and 100 μg/well of WGA SPA beads. Binding was performed for 60 min at room temperature on a shaker and bound radioactivity was measured on a PerkinElmer 1450 MicroBeta counter. Specific binding was calculated by subtracting remaining radioactivity in the presence of 1000-fold excess of unlabeled S1P. Binding data were analyzed using the GraphPad Prism program.
Measurements of ^35S-GTPγS Binding: Membranes (1 to 10 μg protein) prepared as described above, were incubated in 96-well Scintiplates (PerkinElmer) with test compounds diluted in DMSO, in 180 μl of 20 mM HEPES, pH 7.4, 10 mM MgCl2, 2 μg/well Saponin, 0.2% fatty acid free BSA (Assay buffer), 140 mM NaCl and 1.7 μM GDP. The assay was initiated with the addition of 20 μl of 1.5 nM [35S]-GTPγS (1100 Ci/mmol; GE Healthcare) in assay buffer. After 60 min incubation at 30° C. on a shaker, plates were centrifuged for 10 min at 2000 RPM. Supernatant was discarded and membrane bound radioactivity was measured on a PerkinElmer 1450 MicroBeta counter. Triplicate samples were averaged and expressed as response relative to S1P activation in absence of compound (n=2).

Chain of S1P1 receptor (P21453 whole entry): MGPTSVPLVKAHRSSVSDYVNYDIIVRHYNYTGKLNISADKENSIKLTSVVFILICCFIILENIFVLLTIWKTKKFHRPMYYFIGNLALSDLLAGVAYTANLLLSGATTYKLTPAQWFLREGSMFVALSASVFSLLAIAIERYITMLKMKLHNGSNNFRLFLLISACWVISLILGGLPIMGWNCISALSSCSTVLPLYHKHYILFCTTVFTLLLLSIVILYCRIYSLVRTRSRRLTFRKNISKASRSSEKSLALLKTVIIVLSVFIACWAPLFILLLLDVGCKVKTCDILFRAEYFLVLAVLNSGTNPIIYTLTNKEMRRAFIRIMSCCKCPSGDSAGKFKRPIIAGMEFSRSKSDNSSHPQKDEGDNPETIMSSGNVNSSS

| EC50 [nM] | SMILES |
| --- | --- |
| 230 | Fc1ccccc1-n1nnc(-c2nc(-c3cccnc3)no2)c1C1CCCC1 [Example 79, 3-{5-[5-cyclopentyl-1-(2-fluorophenyl)-1H-1,2,3-triazol-4-yl]-1,2,4-oxadiazol-3-yl}pyridine] |
| 236 | COCc1c(-c2nc(-c3ccc(CN)cc3)no2)nnn1-c1ccccc1F [Example 81, 1-(4-{5-[1-(2-fluorophenyl)-5-(methoxymethyl)-1H-1,2,3-triazol-4-yl]-1,2,4-oxadiazol-3-yl}phenyl)methanamine] |
| 451 | Fc1ccccc1-c1noc(-c2nnn(-c3ccccc3F)c2C2CC2)n1 [Example 85, 5-[5-cyclopropyl-1-(2-fluorophenyl)-1H-1,2,3-triazol-4-yl]-3-(2-fluorophenyl)-1,2,4-oxadiazole] |
| 1030 | Fc1ccccc1-n1nnc(-c2nc(-c3ccco3)no2)c1-c1ccncc1 [Example 89, 4-{1-(2-fluorophenyl)-4-[3-(2-furyl)-1,2,4-oxadiazol-5-yl]-1H-1,2,3-triazol-5-yl}pyridine] |
| 204 | COCc1c(-c2nc(-c3cccc4[nH]ccc34)no2)nnn1-c1ccccc1F [Example 90, 4-{5-[1-(2-fluorophenyl)-5-(methoxymethyl)-1H-1,2,3-triazol-4-yl]-1,2,4-oxadiazol-3-yl}-1H-indole] |
| 443 | CN(C)Cc1c(-c2nc(-c3cc(F)ccc3F)no2)nnn1-c1ccccc1F [Example 91, 1-[4-[3-(2,5-difluorophenyl)-1,2,4-oxadiazol-5-yl]-1-(2-fluorophenyl)-1H-1,2,3-triazol-5-yl]-N,N-dimethylmethanamine] |
| 754 | COCc1c(-c2nc(-c3cccc(S(N)(=O)=O)c3)no2)nnn1-c1ccccc1F [Example 93, 3-{5-[1-(2-fluorophenyl)-5-(methoxymethyl)-1H-1,2,3-triazol-4-yl]-1,2,4-oxadiazol-3-yl}benzenesulfonamide] |
| 138 | Fc1ccc(-c2noc(-c3nnn(-c4ccccc4F)c3-c3ccncc3)n2)cc1 [Example 96, 4-{1-(2-fluorophenyl)-4-[3-(4-fluorophenyl)-1,2,4-oxadiazol-5-yl]-1H-1,2,3-triazol-5-yl}pyridine] |
| 106 | Fc1ccccc1-n1nnc(-c2nc(-c3c(F)cccc3F)no2)c1-c1ccncc1 [Example 99, 4-[4-[3-(2,6-difluorophenyl)-1,2,4-oxadiazol-5-yl]-1-(2-fluorophenyl)-1H-1,2,3-triazol-5-yl]pyridine] |
| 18 | Fc1ccccc1-n1nnc(-c2nc(-c3cccc(Br)c3)no2)c1-c1ccncc1 [Example 100, 4-[4-[3-(3-bromophenyl)-1,2,4-oxadiazol-5-yl]-1-(2-fluorophenyl)-1H-1,2,3-triazol-5-yl]pyridine] |
| 21 | OCc1ccc(-c2noc(-c3nnn(-c4ccccc4F)c3-c3ccncc3)n2)cc1 [Example 108, (4-{5-[1-(2-fluorophenyl)-5-pyridin-4-yl-1H-1,2,3-triazol-4-yl]-1,2,4-oxadiazol-3-yl}phenyl)methanol] |
| 54 | OCc1cccc(-c2noc(-c3nnn(-c4ccccc4F)c3-c3ccncc3)n2)c1 [Example 111, (3-{5-[1-(2-fluorophenyl)-5-pyridin-4-yl-1H-1,2,3-triazol-4-yl]-1,2,4-oxadiazol-3-yl}phenyl)methanol] |
| 806 | Fc1ccc(F)c(-c2noc(-c3nnn(-c4ccccc4F)c3CNCC3CC3)n2)c1 [Example 112, 1-cyclopropyl-N-{[4-[3-(2,5-difluorophenyl)-1,2,4-oxadiazol-5-yl]-1-(2-fluorophenyl)-1H-1,2,3-triazol-5-yl]methyl}methanamine] |
| 131 | Nc1ccc(-c2noc(-c3nnn(-c4ccccc4F)c3-c3ccncc3)n2)cn1 [Example 118, 5-{5-[1-(2-fluorophenyl)-5-pyridin-4-yl-1H-1,2,3-triazol-4-yl]-1,2,4-oxadiazol-3-yl}pyridin-2-amine] |

The remaining lines, values behind:

| SMILES | EC50 [nM] |
| --- | --- |
| Fc1ccccc1-n1nnc(-c2nc(-c3cccc(Cn4ccnc4)c3)no2)c1-c1ccncc1 [Example 82, 4-(1-(2-fluorophenyl)-4-{3-[3-(1H-imidazol-1-ylmethyl)phenyl]-1,2,4-oxadiazol-5-yl}-1H-1,2,3-triazol-5-yl)pyridine] | 176 |
| CS(=O)(=O)c1cccc(-c2noc(-c3nnn(-c4ccccc4F)c3-c3ccccn3)n2)c1 [Example 84, 2-(1-(2-fluorophenyl)-4-{3-[3-(methylsulfonyl)phenyl]-1,2,4-oxadiazol-5-yl}-1H-1,2,3-triazol-5-yl)pyridine] | 418 |
| Fc1ccccc1-n1nnc(-c2nc(-c3cccc(Cn4cncn4)c3)no2)c1-c1ccccn1 [Example 86, 2-(1-(2-fluorophenyl)-4-{3-[3-(1H-1,2,4-triazol-1-ylmethyl)phenyl]-1,2,4-oxadiazol-5-yl}-1H-1,2,3-triazol-5-yl)pyridine] | 751 |
| Fc1ccccc1-n1nnc(-c2nc(-c3ccoc3)no2)c1-c1ccncc1 [Example 88, 4-{1-(2-fluorophenyl)-4-[3-(3-furyl)-1,2,4-oxadiazol-5-yl]-1H-1,2,3-triazol-5-yl}pyridine] | 945 |
| CN(C)Cc1cccc(-c2noc(-c3nnn(-c4ccccc4F)c3-c3ccncc3)n2)c1 [Example 94, 1-(3-{5-[1-(2-fluorophenyl)-5-pyridin-4-yl-1H-1,2,3-triazol-4-yl]-1,2,4-oxadiazol-3-yl}phenyl)-N,N-dimethylmethanamine] | 226 |
| Fc1ccccc1-n1nnc(-c2nc(-c3ccccc3)no2)c1-c1ccncc1 [Example 95, 4-[1-(2-fluorophenyl)-4-(3-phenyl-1,2,4-oxadiazol-5-yl)-1H-1,2,3-triazol-5-yl]pyridine] | 13 |
| Fc1ccccc1-n1nnc(-c2nc(-c3ccc(CN4CCOCC4)cc3)no2)c1-c1ccncc1 [Example 98, 4-(4-{5-[1-(2-fluorophenyl)-5-pyridin-4-yl-1H-1,2,3-triazol-4-yl]-1,2,4-oxadiazol-3-yl}benzyl)morpholine] | 439 |
| Fc1ccccc1-n1nnc(-c2nc(-c3cccc(C(F)(F)F)c3)no2)c1-c1ccncc1 [Example 103, 4-(1-(2-fluorophenyl)-4-{3-[3-(trifluoromethyl)phenyl]-1,2,4-oxadiazol-5-yl}-1H-1,2,3-triazol-5-yl)pyridine] | 17 |
| Fc1ccccc1-n1nnc(-c2nc(-c3ccc4c(c3)CNCC4)no2)c1-c1ccncc1 [Example 105, 7-{5-[1-(2-fluorophenyl)-5-pyridin-4-yl-1H-1,2,3-triazol-4-yl]-1,2,4-oxadiazol-3-yl}-1,2,3,4-tetrahydroisoquinoline] | 26 |
| O=C1Cc2cc(-c3noc(-c4nnn(-c5ccccc5F)c4-c4ccncc4)n3)ccc2N1 [Example 106, 5-{5-[1-(2-fluorophenyl)-5-pyridin-4-yl-1H-1,2,3-triazol-4-yl]-1,2,4-oxadiazol-3-yl}-1,3-dihydro-2H-indol-2-one] | 18 |
| Cc1ccc(-c2noc(-c3nnn(-c4ccccc4F)c3-c3ccncc3)n2)cc1 [Example 107, 4-{1-(2-fluorophenyl)-4-[3-(4-methylphenyl)-1,2,4-oxadiazol-5-yl]-1H-1,2,3-triazol-5-yl}pyridine] | 49 |
| Fc1ccccc1-n1nnc(-c2nc(-c3ccc(C(F)(F)F)cc3)no2)c1-c1ccncc1 [Example 109, 4-(1-(2-fluorophenyl)-4-{3-[4-(trifluoromethyl)phenyl]-1,2,4-oxadiazol-5-yl}-1H-1,2,3-triazol-5-yl)pyridine] | 402 |
| Fc1ccccc1-n1nnc(-c2nc(-c3ccc(C4OCCO4)cc3)no2)c1-c1ccncc1 [Example 110, 4-[4-{3-[4-(1,3-dioxolan-2-yl)phenyl]-1,2,4-oxadiazol-5-yl}-1-(2-fluorophenyl)-1H-1,2,3-triazol-5-yl]pyridine] | 136 |
| NC(=O)C1CCN(Cc2ccc(-c3noc(-c4nnn(-c5ccccc5F)c4-c4ccncc4)n3)cc2)CC1 [Example 115, 11-(4-{5-[1-(2-fluorophenyl)-5-pyridin-4-yl-1H-1,2,3-triazol-4-yl]-1,2,4-oxadiazol-3-yl}benzyl)piperidine-4-carboxamide] | 246 |
| Nc1c(Cl)cc(-c2noc(-c3nnn(-c4ccccc4F)c3-c3ccncc3)n2)cc1Cl [Example 117, 2,6-dichloro-4-{5-[1-(2-fluorophenyl)-5-pyridin-4-yl-1H-1,2,3-triazol-4-yl]-1,2,4-oxadiazol-3-yl}aniline] | 9 |
| Fc1ccccc1-n1nnc(-c2nc(-c3cnccn3)no2)c1-c1ccncc1 [Example 119, 2-{5-[1-(2-fluorophenyl)-5-pyridin-4-yl-1H-1,2,3-triazol-4-yl]-1,2,4-oxadiazol-3-yl}pyrazine] | 1260 |
